# Test results from patent US20060142247A1, “Tricyclic heterocycles” (priority 2004, published 2006).
# Molecular target: T1, Aurora A (Homo sapiens, UniProt O14965)
# T1 construct: C-terminally Histidine4 (His4)-tagged Aurora A full-length protein; His4 (C)
# T1 sequence (O14965 1-403): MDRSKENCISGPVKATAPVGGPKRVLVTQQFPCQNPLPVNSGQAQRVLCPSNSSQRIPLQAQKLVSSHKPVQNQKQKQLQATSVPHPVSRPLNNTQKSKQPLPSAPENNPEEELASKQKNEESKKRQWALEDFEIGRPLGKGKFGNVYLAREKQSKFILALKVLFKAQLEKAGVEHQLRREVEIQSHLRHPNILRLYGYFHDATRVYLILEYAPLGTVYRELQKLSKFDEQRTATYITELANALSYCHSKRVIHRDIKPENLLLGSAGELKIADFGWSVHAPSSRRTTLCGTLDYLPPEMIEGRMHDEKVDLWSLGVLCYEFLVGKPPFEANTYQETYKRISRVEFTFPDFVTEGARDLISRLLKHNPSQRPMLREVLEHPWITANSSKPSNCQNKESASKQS
# Assay: IC50 determination for inhibitors of Aurora A (96 MTP-ELISA)
# Format: biochemical
# Conditions: His4-tagged full-length Aurora A 250 ng/ml, PKB-GSK2 200 nM, ATP 4 μM, 90 min room temperature, read-out: IC50 Aurora A kinase inhibition
# Description: Aurora A is a serine threonine kinase involved in spindle assembly and chromosome segregation. The assay is a typically ELISA-type assay where biotinylated substrate (PKB-GSK2) is phosphorylated. Phosphorylation is detected by peroxidase (POD) labelled polyclonal antibody (PAK<M-Ig>S-IgG-POD) and phosphopeptide monoclonal antibody (Mab) (MAK<P-GSK>M-27E5-IgG). The assay is validated for IC50-determination.
# Assay plates: 96-well polystyrene plates, streptavidin-coated,
# Samples: 10 mM in dimethylsulfoxide (DMSO)
# Aurora A-His-4: C-terminally Histidine4 (His4)-tagged Aurora A full-length protein, stock solution 0.7 mg/ml, final conc.: 250 ng/ml
# PKB-GSK2: biotinylated peptide derived from human GSK3-alpha sequence (Biotin-SGRARTSSFAEPGG-CONH2), stock solution 600 μM, final conc.: 200 nM
# PAK<M-Ig>S-IgG-POD: Anti-mouse IgG, horse radish peroxidase(HRP)-linked Antibody, diluted in 3% BSA/PBS-T (1:10000), (Cell Signaling, Cat. No.: 7076)
# MAK<P-GSK>M-27E5-IgG: Phospho-GSK-3-alpha (Ser 21) (27E5) Monoclonal Antibody, stock solution 1.85 mg/ml, diluted in 3% BSA/PBS-T (1:6000), final conc.: 0.31 μg/ml, (Cell Signaling, Cat. No.: 9337B)
# ATP: Adenosine-5′-triphosphate 1 mM, diluted in kinase buffer, (Roche Diagnostics GmbH, Cat. No.: 127531-001,), final conc.: 4 μM
# TRIS: 2-Amino-2-hydroxymethyl-1,3-propoanediol (“tris-(hydroxymethyl)-aminomethane”) (MERCK, Cat. No.: 108382.2500)
# BSA: Bovine Serum Albumin Fraction V, fatty acid free (Roche Diagnostics GmbH, Cat. No. 9100221)
# EDTA Titriplex III (di-Sodium-EDTA di-Hydrate), 120 mM, (MERCK, Cat. No.: 1.08418.1000)
# ABTS buffer: ABTS (2,2′-azino-bis(3-ethylbenzthiazoline-6-sulfonic acid)) 16.7 mg/ml (Roche Diagnostics GmbH, Cat. No.: 1204530) • ABTS tablets: dissolve one ABTS tablet in 50 ml of working solution (ABTS buffer) (Roche Diagnostics GmbH, Cat. No.: 1112422 ) • Tween 20: Polysorbat 20 (Roche Diagnostics GmbH, Cat. No.: 10006394-001) • DTT: 1,4-Dithiothreitol (Roche Diagnostics GmbH, Cat. No.: 197777) • MgCl2×6H2O MERCK, Cat. No.: 105833.1000 • Kinase buffer: 50 mM TRIS, 10 mM MgCl2, 1 mM DTT, 0.1% Tween 20, pH 7.8 PBS-T (=Wash buffer) (PBS-T)10 g/l PBS(Phosphate buffered saline) with 0.033% Tween 20 • 3% BSA/PBS-T: 3% BSA dissolved in PBS-T Method
# This assay is performed in 96-well format for IC50 determination with 5 samples (each with 8 concentrations by twofold testing), 100 μl incubation volume and the following plate layout:
# S samples, with ATP, 1% DMSO, final conc.: a=100 μM, b=20 μM, c=4 μM, d=0.8 μM, e=0.16 μM, f=0.032 μM, g=0.0064 μM, h=0.00128 μM Step/Action • (1) Sample preparation: add 24 μl per well samples (descending sequence) diluted in kinase buffer to assay plate (final conc. for DMSO 1%). • 2. Add directly 16 μl Aurora-A-his-4 diluted in kinase buffer to assay plate. • 3. Add directly 40 μl per well PKB-GSK2/ATP mixture to assay plate, (final conc.: Aurora A=250 ng/ml, GSK2=200 nM, ATP=4 μM). Negative control: without ATP. • 4. Incubate assay plate for exactly 90 min at room temperature. • 5. Stop reaction by adding 20 μl EDTA in all wells. • 6. Wash assay plate 3× with 200 μl washing buffer per well. • 7. Add 100 μl MAK<P-GSK>M27E5-IgG (1:10000) and PAK<M-Ig>S-IgG-POD (1:6000) dissolved in 3% BSA/PBS-T to assay plate per well. • 8. Incubate assay plate for 60 min at room temperature. • 9. Wash assay plate 3× with 200 μl washing buffer per well • 10. Add 100 μl ABTS solution to assay plate per well, incubate for approx. 4 min at RT on MTP shaker. • 11. Measure absorption at 405/492 nm. • 12. Calculate % inhibition as: (1−(Esample−ENC)/(EPC−ENC))×100 1)
# 13. Calculate IC50 using a non-linear curve fit (XLfit software (ID Business Solution Ltd., Guilford, Surrey, UK))
smiles,measurement,value
"CC1(C)C(=O)N(CCNC(=O)c2ccccc2)c2cc3[nH]c(-c4n[nH]c5ccccc45)nc3cc21 [Example 53, N-{2-[2-(1H-Indazol-3-yl)-7,7-dimethyl-6-oxo-6,7-dihydro-3H-imidazo[4,5-f]indol-5-yl]-ethyl}-benzamide]",IC50,1 to 100 nM
